In one test the target is T1, CDK2 (Homo sapiens, UniProt P24941).
T1 construct: endogenous in cells; host or cells: MDA-MB-231
The test can be described thus: CDK protein degradation activity (Western blotting), CDK2. Format: cell-based. Conditions: MDA-MB-231 cells, 16 hours, Western blot. The method, boiled down:
(§1)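 MDA-MB-231; cmpd 100 nM / 1 μM / 10 μM final vs DMSO, 16 h. Triton X-100 lysates (pH 7.5, phosphatase/protease inhibitors) → SDS-PAGE → Western blot, anti-CDK2, anti-CDK9, tubulin loading control; densitometry.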
(In western blotting, separated proteins are transferred to a membrane and probed.)

The next test concerns the target T2, CDK9 (Homo sapiens, UniProt P50750).
T2 construct: endogenous in cells; host or cells: MDA-MB-231
Put plainly: CDK protein degradation activity (Western blotting), CDK9. Format: cell-based. Conditions: MDA-MB-231 cells, 16 hours, Western blot. The method, boiled down: as §1

T2 sequence (P50750 whole entry): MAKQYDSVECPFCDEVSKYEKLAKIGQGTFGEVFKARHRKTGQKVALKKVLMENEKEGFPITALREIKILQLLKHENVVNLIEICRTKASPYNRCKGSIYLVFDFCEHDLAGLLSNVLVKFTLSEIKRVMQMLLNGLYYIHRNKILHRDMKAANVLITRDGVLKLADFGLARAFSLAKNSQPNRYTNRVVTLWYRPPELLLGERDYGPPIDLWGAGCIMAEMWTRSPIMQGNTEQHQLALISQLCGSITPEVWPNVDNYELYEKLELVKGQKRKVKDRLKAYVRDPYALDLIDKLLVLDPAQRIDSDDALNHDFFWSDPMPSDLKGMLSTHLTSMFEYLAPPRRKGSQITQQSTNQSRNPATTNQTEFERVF

With `O=C1CCN(c2coc3cc(C(=O)N4CCC5(CC4)CC(N4CCN(c6ccc(Nc7ncnc8c7ncn8[C@H]7C[C@@H](NC(=O)Cc8ccccc8)C7)cc6)CC4)C5)ccc23)C(=O)N1` [Compound 191, N-((1s,3s)-3-(6-((4-(4-(7-(3-(2,4-dioxotetrahydropyrimidin-1(2H)-yl)benzofuran-6-carbonyl)-7-azaspiro[3.5]nonan-2-yl)piperazin-1-yl)phenyl)amino)-9H-purin-9-yl)cyclobutyl)-2-phenylacetamide], at CDK2, the “Enzyme degradation CDK2 (% remaining) @ 0.1 μM” value was 0/0/0%, the “Enzyme degradation CDK2 (% remaining) @ 1 μM” value is listed as 0/0/0% and the “Enzyme degradation CDK2 (% remaining) @ 10 μM” value is listed as 0/0/0%. On CDK9, the “Enzyme degradation CDK9 (% remaining) @ 0.1 μM” value was 0/0/0%, the “Enzyme degradation CDK9 (% remaining) @ 1 μM” value is on record as 0/0/0% and the “Enzyme degradation CDK9 (% remaining) @ 10 μM” value is 0/0/0%.
Regarding `Cc1cccc(C(=O)NC2CC(n3cnc4c(NCCCN5CCN(CC6CCN(C(=O)CNc7ccc8c(c7)C(=O)N([C@@H]7CCC(=O)NC7=O)C8=O)CC6)CC5)ncnc43)C2)n1` (some centres unmarked) [Compound 145, N-((1r,3r)-3-(6-((3-(4-((1-((2-(2,6-dioxopiperidin-3-yl)-1,3-dioxoisoindolin-5-yl)glycyl)piperidin-4-yl)methyl)piperazin-1-yl)propyl)amino)-9H-purin-9-yl)cyclobutyl)-6-methylpicolinamide], at CDK2, the “Enzyme degradation CDK2 (% remaining) @ 0.1 μM” value is given as 30%, the “Enzyme degradation CDK2 (% remaining) @ 1 μM” value stood at 50% and the “Enzyme degradation CDK2 (% remaining) @ 10 μM” value turned out to be 50%. Further, at CDK9, the “Enzyme degradation CDK9 (% remaining) @ 0.1 μM” value is 0/0/0%, the “Enzyme degradation CDK9 (% remaining) @ 1 μM” value was 0/0/0% and the “Enzyme degradation CDK9 (% remaining) @ 10 μM” value is 0/0/0%.
For the molecule `O=C1CC[C@H](N2C(=O)c3cc(F)c(N4CCC(C(=O)N5CCC(CCCN6CCN(c7ccc(Nc8ncnc9c8ncn9[C@H]8C[C@@H](NC(=O)Cc9ccccc9)C8)cc7)CC6)CC5)CC4)cc3C2=O)C(=O)N1` [Compound 459, N-((1s,3s)-3-(6-((4-(4-(3-(1-(1-(2-(2,6-dioxopiperidin-3-yl)-6-fluoro-1,3-dioxoisoindolin-5-yl)piperidin-4-carbonyl)piperidin-4-yl)propyl)piperazin-1-yl)phenyl)amino)-9H-purin-9-yl)cyclobutyl)-2-phenylacetamide], at CDK2, the “Enzyme degradation CDK2 (% remaining) @ 0.1 μM” value is given as 50%, the “Enzyme degradation CDK2 (% remaining) @ 1 μM” value came out at 30% and the “Enzyme degradation CDK2 (% remaining) @ 10 μM” value is reported as 30%. At CDK9, the “Enzyme degradation CDK9 (% remaining) @ 0.1 μM” value was 0/0/0%, the “Enzyme degradation CDK9 (% remaining) @ 1 μM” value is 0/0/0% and the “Enzyme degradation CDK9 (% remaining) @ 10 μM” value is on record as 0/0/0%.
Take `O=C1CC[C@@H](c2ccc(OCC(=O)N3CCC4(CC3)CC(N3CCN(c5ccc(Nc6ncnc7c6ncn7[C@H]6C[C@@H](NC(=O)c7c(Cl)cccc7Cl)C6)cc5)CC3)C4)cc2)C(=O)N1` [Compound 442, 2,6-dichloro-N-((1s,3s)-3-(6-((4-(4-(7-(2-(4-(2,6-dioxopiperidin-3-yl)phenoxy)acetyl)-7-azaspiro[3.5]nonan-2-yl)piperazin-1-yl)phenyl)amino)-9H-purin-9-yl)cyclobutyl)benzamide]: at CDK2, the “Enzyme degradation CDK2 (% remaining) @ 0.1 μM” value is 40/40/40%, the “Enzyme degradation CDK2 (% remaining) @ 1 μM” value is 40/40/40% and the “Enzyme degradation CDK2 (% remaining) @ 10 μM” value is 40/40/40%. Besides, at CDK9, the “Enzyme degradation CDK9 (% remaining) @ 0.1 μM” value is 0/0/0%, the “Enzyme degradation CDK9 (% remaining) @ 1 μM” value is on record as 0/0/0% and the “Enzyme degradation CDK9 (% remaining) @ 10 μM” value was 0/0/0%.
As for `O=C1CCC(N2C(=O)C=C(N3CCC(C(=O)NC[C@H]4CC[C@H](CN5CCN(c6ccc(Nc7ncnc8c7ncn8[C@H]7C[C@@H](NC(=O)Cc8ccccc8)C7)cc6)CC5)CC4)CC3)C2=O)C(=O)N1` (some centres unmarked) [Compound 201, 1-(1-(2,6-dioxopiperidin-3-yl)-2,5-dioxo-2,5-dihydro-1H-pyrrol-3-yl)-N-(((1r,4r)-4-((4-(4-((9-((1s,3s)-3-(2-phenylacetamido)cyclobutyl)-9H-purin-6-yl)amino)phenyl)piperazin-1-yl)methyl)cyclohexyl)methyl)piperidin-4-carboxamide], on CDK2, the “Enzyme degradation CDK2 (% remaining) @ 0.1 μM” value amounted to 50%, the “Enzyme degradation CDK2 (% remaining) @ 1 μM” value was 70% and the “Enzyme degradation CDK2 (% remaining) @ 10 μM” value was 50%. Also, at CDK9, the “Enzyme degradation CDK9 (% remaining) @ 0.1 μM” value came to 10%, the “Enzyme degradation CDK9 (% remaining) @ 1 μM” value was 10% and the “Enzyme degradation CDK9 (% remaining) @ 10 μM” value is reported as 0%.
In the case of `Cc1cccc(C(=O)N[C@H]2C[C@@H](n3cnc4c(Nc5ccc(N6CCN(CC7CCN(C(=O)C8CCN(c9cc%10c(cc9F)C(=O)N([C@H]9CCC(=O)NC9=O)C%10=O)CC8)CC7)CC6)cc5)ncnc43)C2)n1` [Compound 476, N-((1s,3s)-3-(6-((4-(4-((1-(1-(2-(2,6-dioxopiperidin-3-yl)-6-fluoro-1,3-dioxoisoindolin-5-yl)piperidin-4-carbonyl)piperidin-4-yl)methyl)piperazin-1-yl)phenyl)amino)-9H-purin-9-yl)cyclobutyl)-6-methylpicolinamide], on CDK2, the “Enzyme degradation CDK2 (% remaining) @ 0.1 μM” value was 70% and the “Enzyme degradation CDK2 (% remaining) @ 10 μM” value is recorded as 60%. In addition, at CDK9, the “Enzyme degradation CDK9 (% remaining) @ 0.1 μM” value was 50%, the “Enzyme degradation CDK9 (% remaining) @ 1 μM” value is given as 10% and the “Enzyme degradation CDK9 (% remaining) @ 10 μM” value was 10%.
Take `O=C1CC[C@@H](c2ccc(OCC(=O)N3CCC(CN4CCN(c5ccc(Nc6ncnc7c6ncn7[C@H]6C[C@@H](NC(=O)c7c(Cl)cccc7Cl)C6)cc5)CC4)CC3)cc2)C(=O)N1` [Compound 437, 2,6-dichloro-N-((1s,3s)-3-(6-((4-(4-((1-(2-(4-(2,6-dioxopiperidin-3-yl)phenoxy)acetyl)piperidin-4-yl)methyl)piperazin-1-yl)phenyl)amino)-9H-purin-9-yl)cyclobutyl)benzamide]: on CDK2, the “Enzyme degradation CDK2 (% remaining) @ 0.1 μM” value is given as 30%, the “Enzyme degradation CDK2 (% remaining) @ 1 μM” value amounted to 40% and the “Enzyme degradation CDK2 (% remaining) @ 10 μM” value turned out to be 40%. Moreover, on CDK9, the “Enzyme degradation CDK9 (% remaining) @ 0.1 μM” value is on record as 10/10/10%, the “Enzyme degradation CDK9 (% remaining) @ 1 μM” value is given as 10/10/10% and the “Enzyme degradation CDK9 (% remaining) @ 10 μM” value is listed as 10/10/10%.
As to `Cc1cccc(C(=O)NC2CC(n3cnc4c(Nc5ccc(N6CCN(CC7CCN(C(=O)COc8ccc([C@@H]9CCC(=O)NC9=O)cc8)CC7)CC6)cc5)ncnc43)C2)n1` (some centres unmarked) [Compound 443, N-((1s,3s)-3-(6-((4-(4-((1-(2-(4-(2,6-dioxopiperidin-3-yl)phenoxy)acetyl)piperidin-4-yl)methyl)piperazin-1-yl)phenyl)amino)-9H-purin-9-yl)cyclobutyl)-6-methylpicolinamide], on CDK2, the “Enzyme degradation CDK2 (% remaining) @ 0.1 μM” value is on record as 20/20/20%, the “Enzyme degradation CDK2 (% remaining) @ 1 μM” value is 20/20/20% and the “Enzyme degradation CDK2 (% remaining) @ 10 μM” value was 20/20/20%. On CDK9, the “Enzyme degradation CDK9 (% remaining) @ 0.1 μM” value was 0/0/0%, the “Enzyme degradation CDK9 (% remaining) @ 1 μM” value is 0/0/0% and the “Enzyme degradation CDK9 (% remaining) @ 10 μM” value is 0/0/0%.
Regarding `O=C1CC[C@H](N2C(=O)c3ccc(N4CC(C(=O)N5CCN(CC6CCN(c7ccc(Nc8ncnc9c8ncn9C8CC(NC(=O)Cc9ccccc9)C8)cc7)CC6)CC5)C4)cc3C2=O)C(=O)N1` (some centres unmarked) [Compound 331, N-((1s,3s)-3-(6-((4-(4-((4-(1-(2-(2,6-dioxopiperidin-3-yl)-1,3-dioxoisoindolin-5-yl)azetidin-3-carbonyl)piperazin-1-yl)methyl)piperidin-1-yl)phenyl)amino)-9H-purin-9-yl)cyclobutyl)-2-phenylacetamide], at CDK2, the “Enzyme degradation CDK2 (% remaining) @ 0.1 μM” value is listed as 50%, the “Enzyme degradation CDK2 (% remaining) @ 1 μM” value was 30% and the “Enzyme degradation CDK2 (% remaining) @ 10 μM” value was found to be 30%. At CDK9, the “Enzyme degradation CDK9 (% remaining) @ 0.1 μM” value was 30%, the “Enzyme degradation CDK9 (% remaining) @ 1 μM” value came to 10% and the “Enzyme degradation CDK9 (% remaining) @ 10 μM” value is listed as 0%.
Turning to `CC(=O)NC1CC(n2cnc3c(NCC4CCN(CC5CCN(C(=O)COc6cccc7c6C(=O)N([C@H]6CCC(=O)NC6=O)C7=O)CC5)CC4)ncnc32)C1` (some centres unmarked) [Compound 155, N-((1s,3s)-3-(6-(((1-((1-(2-((2-(2,6-dioxopiperidin-3-yl)-1,3-dioxoisoindolin-4-yl)oxy)acetyl)piperidin-4-yl)methyl)piperidin-4-yl)methyl)amino)-9H-purin-9-yl)cyclobutyl)acetamide], on CDK2, the “Enzyme degradation CDK2 (% remaining) @ 0.1 μM” value came out at 100%, the “Enzyme degradation CDK2 (% remaining) @ 1 μM” value is 80% and the “Enzyme degradation CDK2 (% remaining) @ 10 μM” value is given as 10%. At CDK9, the “Enzyme degradation CDK9 (% remaining) @ 0.1 μM” value came to 90%, the “Enzyme degradation CDK9 (% remaining) @ 1 μM” value is 40% and the “Enzyme degradation CDK9 (% remaining) @ 10 μM” value was 0%.
In the case of `O=C1CC[C@H](n2nnc3ccc(N4CCC(N5CCN(c6ccc(Nc7ncnc8c7ncn8[C@H]7C[C@@H](NC(=O)Cc8ccccc8)C7)cc6)CC5)CC4)cc3c2=O)C(=O)N1` [Compound 334, N-((1s,3s)-3-(6-((4-(4-(1-(3-(2,6-dioxopiperidin-3-yl)-4-oxo-3,4-dihydrobenzo[d][1,2,3]triazin-6-yl)piperidin-4-yl)piperazin-1-yl)phenyl)amino)-9H-purin-9-yl)cyclobutyl)-2-phenylacetamide], on CDK2, the “Enzyme degradation CDK2 (% remaining) @ 0.1 μM” value came out at 60%, the “Enzyme degradation CDK2 (% remaining) @ 1 μM” value is 50% and the “Enzyme degradation CDK2 (% remaining) @ 10 μM” value was determined as 50%. On CDK9, the “Enzyme degradation CDK9 (% remaining) @ 0.1 μM” value is on record as 20%, the “Enzyme degradation CDK9 (% remaining) @ 1 μM” value was determined as 10% and the “Enzyme degradation CDK9 (% remaining) @ 10 μM” value stood at 10%.

The values above are taken from patent US20260125382A1, “COMPOUNDS FOR INHIBITING OR DEGRADING CDK2 AND/OR CDK9 AND MEDICINAL USE THEREOF” (KOREA RESEARCH INSTITUTE OF CHEMICAL TECHNOLOGY, priority 2022, published 2026).
